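Assay format: 96-well plates, 48-hour exposure. GI50 = concentration required for 50% inhibition of growth.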 Activity calls are given as the source filed them. Cut-off read from the data, not from the text of the source: active = GI50 up to about 1.1 µM and inactive = higher.
Assays:
Test in all cases: NCI tumour cell line growth inhibition, 48 h
RXF 393 = system: RXF 393
COLO 205 = system: COLO 205
786-0 = system: 786-0
ACHN = system: ACHN
SK-MEL-2 = system: SK-MEL-2
U-251 = system: U-251
OVCAR-5 = system: OVCAR-5
OVCAR-4 = system: OVCAR-4
SK-MEL-5 = system: SK-MEL-5
NCI-H23 = system: NCI-H23
DLD-1 = system: DLD-1
OVCAR-8 = system: OVCAR-8
MOLT-4 = system: MOLT-4
SF-295 = system: SF-295
RXF 631 = system: RXF 631
M14 = system: M14
SNB-75 = system: SNB-75
HCT-116 = system: HCT-116
SNB-78 = system: SNB-78
SF-268 = system: SF-268
Malme-3M = system: Malme-3M
RPMI-8226 = system: RPMI-8226
HOP-18 = system: HOP-18
NCI-H226 = system: NCI-H226
DMS-114 = system: DMS-114
SK-OV-3 = system: SK-OV-3
XF498 = system: XF498
KM12 = system: KM12
TK-10 = system: TK-10
SF-539 = system: SF-539
OVCAR-3 = system: OVCAR-3
SK-MEL-28 = system: SK-MEL-28
SW-620 = system: SW-620
HCC 2998 = system: HCC 2998
HOP-92 = system: HOP-92
KM-20L2 = system: KM-20L2
A498 = system: A498
HL-60 = system: HL-60
LXFL 529 = system: LXFL 529
CAKI-1 = system: CAKI-1
UACC-257 = system: UACC-257
UACC-62 = system: UACC-62
NCI-H522 = system: NCI-H522
HT-29 = system: HT-29
M19-MEL = system: M19-MEL
K562 = system: K562
HCT-15 = system: HCT-15
IGROV-1 = system: IGROV-1
NCI-H460 = system: NCI-H460
HOP-62 = system: HOP-62
DMS-273 = system: DMS-273
UO-31 = system: UO-31
SN12C = system: SN12C
A549 = system: A549
CCRF-CEM = system: CCRF-CEM
LOX IMVI = system: LOX IMVI
SNB-19 = system: SNB-19
EKVX = system: EKVX

Which GI50 (RXF 393) does the source give for `O=C(C(=O)n1ncc(Cl)c(Cl)c1=O)n1ncc(Cl)c(Cl)c1=O` here?
The GI50 was > 10 µM (inactive).

What about the GI50 (COLO 205) of the same molecule?
Its GI50 is 13.9 µM (inactive).

And the GI50 (786-0)?
Its GI50 is 19.5 µM (inactive).

And the GI50 (ACHN)?
Its GI50 is 16.9 µM (inactive).

What about the GI50 (SK-MEL-2) of the same molecule?
The GI50 was 23.3 µM (inactive).

What about the GI50 (U-251) of the same molecule?
The GI50 was 35.7 µM (inactive).

What about the GI50 (OVCAR-5) of the same molecule?
Its GI50 is > 100 µM (inactive).

What about the GI50 (OVCAR-4) of the same molecule?
The GI50 was 19.6 µM (inactive).

And the GI50 (SK-MEL-5)?
The GI50 was 35.5 µM (inactive).

What about the GI50 (NCI-H23) of the same molecule?
The GI50 was 19.8 µM (inactive).

And the GI50 (DLD-1)?
The GI50 was 16 µM (inactive).

And the GI50 (OVCAR-8)?
Its GI50 is 23.1 µM (inactive).

And the GI50 (MOLT-4)?
The GI50 was 14.8 µM (inactive).

What about the GI50 (SF-295) of the same molecule?
The GI50 was 93.5 µM (inactive).

What about the GI50 (RXF 631) of the same molecule?
Its GI50 is 38 µM (inactive).

What about the GI50 (M14) of the same molecule?
Its GI50 is 25.1 µM (inactive).

And the GI50 (SNB-75)?
Its GI50 is 40.8 µM (inactive).

What about the GI50 (HCT-116) of the same molecule?
The GI50 was 15.8 µM (inactive).

What about the GI50 (SNB-78) of the same molecule?
Its GI50 is 28.6 µM (inactive).

What about the GI50 (SF-268) of the same molecule?
Its GI50 is 42.4 µM (inactive).

What about the GI50 (Malme-3M) of the same molecule?
Its GI50 is 19.7 µM (inactive).

And the GI50 (RPMI-8226)?
Its GI50 is 4.18 µM (inactive).

What about the GI50 (HOP-18) of the same molecule?
Its GI50 is 31.8 µM (inactive).

What about the GI50 (NCI-H226) of the same molecule?
The GI50 was > 100 µM (inactive).

What about the GI50 (DMS-114) of the same molecule?
Its GI50 is 27.4 µM (inactive).

What about the GI50 (SK-OV-3) of the same molecule?
Its GI50 is > 53.8 µM (inactive).

What about the GI50 (XF498) of the same molecule?
The GI50 was 26.2 µM (inactive).

What about the GI50 (KM12) of the same molecule?
The GI50 was 27.7 µM (inactive).

And the GI50 (TK-10)?
The GI50 was 27.4 µM (inactive).

And the GI50 (SF-539)?
The GI50 was 28.8 µM (inactive).

And the GI50 (OVCAR-3)?
The GI50 was 27.1 µM (inactive).

And the GI50 (SK-MEL-28)?
Its GI50 is 25.3 µM (inactive).

And the GI50 (SW-620)?
The GI50 was 19.4 µM (inactive).

And the GI50 (HCC 2998)?
The GI50 was 23.3 µM (inactive).

And the GI50 (HOP-92)?
Its GI50 is 23.2 µM (inactive).

What about the GI50 (KM-20L2) of the same molecule?
Its GI50 is 29.6 µM (inactive).

What about the GI50 (A498) of the same molecule?
Its GI50 is > 100 µM (inactive).

What about the GI50 (HL-60) of the same molecule?
Its GI50 is 5.82 µM (inactive).

And the GI50 (LXFL 529)?
Its GI50 is 14.6 µM (inactive).

What about the GI50 (CAKI-1) of the same molecule?
The GI50 was 17.7 µM (inactive).

What about the GI50 (UACC-257) of the same molecule?
Its GI50 is 19.5 µM (inactive).

And the GI50 (UACC-62)?
The GI50 was 15.1 µM (inactive).

What about the GI50 (NCI-H522) of the same molecule?
The GI50 was 10.7 µM (inactive).

And the GI50 (HT-29)?
The GI50 was 18.2 µM (inactive).

What about the GI50 (M19-MEL) of the same molecule?
The GI50 was 20.4 µM (inactive).

What about the GI50 (K562) of the same molecule?
Its GI50 is 20.3 µM (inactive).

And the GI50 (HCT-15)?
Its GI50 is 17.5 µM.

What about the GI50 (IGROV-1) of the same molecule?
The GI50 was 27.4 µM (inactive).

What about the GI50 (NCI-H460) of the same molecule?
The GI50 was 45.7 µM (inactive).

And the GI50 (HOP-62)?
The GI50 was > 100 µM (inactive).

What about the GI50 (DMS-273) of the same molecule?
The GI50 was 17.9 µM (inactive).

And the GI50 (UO-31)?
The GI50 was 48.5 µM (inactive).

And the GI50 (SN12C)?
Its GI50 is 24.4 µM (inactive).

What about the GI50 (A549) of the same molecule?
Its GI50 is 96.8 µM (inactive).

What about the GI50 (CCRF-CEM) of the same molecule?
The GI50 was 6.85 µM (inactive).

What about the GI50 (LOX IMVI) of the same molecule?
The GI50 was 30.1 µM (inactive).

What about the GI50 (SNB-19) of the same molecule?
Its GI50 is > 100 µM (inactive).

What about the GI50 (EKVX) of the same molecule?
Its GI50 is 40.4 µM (inactive).

With `O=c1oc2ccccc2[n+]([O-])c1-c1ccccc1` as the molecule, how does the GI50 (RXF 393) read?
The GI50 was > 100 µM (inactive).

And the GI50 (COLO 205)?
The GI50 was > 100 µM (inactive).

What about the GI50 (786-0) of the same molecule?
The GI50 was > 100 µM (inactive).

And the GI50 (ACHN)?
Its GI50 is > 100 µM (inactive).

What about the GI50 (SK-MEL-2) of the same molecule?
The GI50 was > 100 µM (inactive).

And the GI50 (U-251)?
Its GI50 is > 100 µM (inactive).

What about the GI50 (OVCAR-5) of the same molecule?
The GI50 was > 100 µM (inactive).

What about the GI50 (OVCAR-4) of the same molecule?
Its GI50 is > 100 µM (inactive).

And the GI50 (SK-MEL-5)?
Its GI50 is > 100 µM (inactive).

And the GI50 (NCI-H23)?
Its GI50 is > 100 µM (inactive).

What about the GI50 (DLD-1) of the same molecule?
The GI50 was > 100 µM (inactive).

And the GI50 (OVCAR-8)?
The GI50 was > 100 µM (inactive).

What about the GI50 (MOLT-4) of the same molecule?
The GI50 was > 100 µM (inactive).

And the GI50 (SF-295)?
The GI50 was > 100 µM (inactive).

And the GI50 (RXF 631)?
The GI50 was > 100 µM (inactive).

What about the GI50 (M14) of the same molecule?
Its GI50 is > 100 µM (inactive).

And the GI50 (SNB-75)?
The GI50 was 49.7 µM (inactive).

What about the GI50 (HCT-116) of the same molecule?
The GI50 was > 100 µM (inactive).

What about the GI50 (SNB-78) of the same molecule?
Its GI50 is > 100 µM (inactive).

And the GI50 (SF-268)?
The GI50 was > 100 µM (inactive).

And the GI50 (Malme-3M)?
The GI50 was > 100 µM (inactive).

What about the GI50 (RPMI-8226) of the same molecule?
The GI50 was > 100 µM (inactive).

What about the GI50 (HOP-18) of the same molecule?
Its GI50 is > 100 µM (inactive).

And the GI50 (NCI-H226)?
The GI50 was > 100 µM (inactive).

And the GI50 (DMS-114)?
The GI50 was > 100 µM (inactive).

What about the GI50 (SK-OV-3) of the same molecule?
The GI50 was > 100 µM (inactive).

And the GI50 (XF498)?
The GI50 was > 100 µM (inactive).

And the GI50 (KM12)?
The GI50 was > 100 µM (inactive).

And the GI50 (TK-10)?
The GI50 was > 100 µM (inactive).

And the GI50 (SF-539)?
Its GI50 is > 100 µM (inactive).

And the GI50 (OVCAR-3)?
Its GI50 is > 100 µM (inactive).

And the GI50 (SK-MEL-28)?
Its GI50 is > 100 µM (inactive).

And the GI50 (SW-620)?
Its GI50 is > 100 µM (inactive).

What about the GI50 (HCC 2998) of the same molecule?
Its GI50 is > 100 µM (inactive).

What about the GI50 (HOP-92) of the same molecule?
The GI50 was > 100 µM (inactive).

And the GI50 (KM-20L2)?
The GI50 was > 100 µM (inactive).

What about the GI50 (A498) of the same molecule?
The GI50 was > 100 µM (inactive).

What about the GI50 (HL-60) of the same molecule?
The GI50 was > 100 µM (inactive).

And the GI50 (LXFL 529)?
Its GI50 is > 100 µM (inactive).

What about the GI50 (CAKI-1) of the same molecule?
The GI50 was > 100 µM (inactive).

What about the GI50 (UACC-257) of the same molecule?
Its GI50 is > 100 µM (inactive).

And the GI50 (UACC-62)?
Its GI50 is > 100 µM (inactive).

And the GI50 (NCI-H522)?
Its GI50 is 36.6 µM (inactive).

What about the GI50 (HT-29) of the same molecule?
Its GI50 is > 100 µM (inactive).

What about the GI50 (M19-MEL) of the same molecule?
The GI50 was > 100 µM (inactive).

And the GI50 (K562)?
The GI50 was > 100 µM (inactive).

What about the GI50 (HCT-15) of the same molecule?
Its GI50 is over 100 µM.

What about the GI50 (IGROV-1) of the same molecule?
Its GI50 is > 100 µM (inactive).

What about the GI50 (NCI-H460) of the same molecule?
Its GI50 is > 100 µM (inactive).

What about the GI50 (HOP-62) of the same molecule?
Its GI50 is > 100 µM (inactive).

What about the GI50 (DMS-273) of the same molecule?
The GI50 was > 100 µM (inactive).

And the GI50 (UO-31)?
The GI50 was > 100 µM (inactive).

What about the GI50 (SN12C) of the same molecule?
Its GI50 is > 100 µM (inactive).

What about the GI50 (A549) of the same molecule?
The GI50 was > 100 µM (inactive).

What about the GI50 (CCRF-CEM) of the same molecule?
The GI50 was > 100 µM (inactive).

And the GI50 (LOX IMVI)?
The GI50 was > 100 µM (inactive).

What about the GI50 (SNB-19) of the same molecule?
Its GI50 is > 100 µM (inactive).

What about the GI50 (EKVX) of the same molecule?
The GI50 was > 100 µM (inactive).

Source: ChEMBL document CHEMBL1201862, “PubChem BioAssay data set” (2004)
